Where a name gives a salt, the structure may show the parent alone. Read-outs that look alike come from different tables or passages of the source.
What was measured:
[1] = test system: delayed hypersensitivity reaction (pertussis vaccine pleurisy); assay: pertussis vaccine pleurisy test in rats; assay type: in vivo, rat (male Sprague-Dawley); conditions: for change in vivo at 10 mg/kg: Rattus norvegicus, po, 48 h, read-out: Enhancement of the delayed hypersensitivity reaction assessed by the exudate vol.
Text: A useful test for the evaluation of the effect of chemical compounds on the immune system is the pertussis vaccine pleurisy test in rats. Compounds which enhance the response in this delayed hypersensitivity reaction are considered to stimulate cell-mediated immunity (4).
This example illustrates the effect of the compounds of the general formula I in the pertussis vaccine pleurisy test.
Pertussis vaccine pleurisy is a useful test for the evaluation of the effect of chemical compounds on the immune system. Compounds which enhance the response in this delayed hypersensitivity reaction are considered to stimulate cell-mediated immunity.
A modification of a method described in (4) was used. Male Sprague-Dawley rats weighing 250-275 g were used. At least ten animals were used in each group.
Equal volumes of Freund's incomplete adjuvant and a suspension of heat killed Bordetella pertussis organisms were mixed. To sensitize animals, day 0, 0.2 ml of a mixture containing 0.036×10^10 organisms/ml was injected into the dorsal surface of one hind paw and one forepaw.
The animals were challenged on day 12 with 0.1 ml of a mixture containing 0.25×10^10 organisms/ml that was injected intrapleurally. 48 hours after challenge, day 14, the volume of the exudate in the pleural cavity was measured.
The substances suspended in aqueous methocel solution 10 ml/kg were given intragastrically once daily from day 10 to day 13. The control groups were given methocel solution 10 ml/kg.
The effect of the substances was assessed by the exudate volume expressed in percent after comparison with the control groups.

[2] = test system: carrageenan-induced edema; assay: carrageenan edema test in rats; assay type: in vivo, rat (female Sprague-Dawley); conditions: for change in vivo at 80 mg/kg: Rattus norvegicus, po, 80 mg/kg p.o., 30 min before carrageenan, edema weight 3 h after, vs control, preliminary, read-out: Potentiation of the carrageenan edema, %; for significant potentiation of the carrageenan edema: dose within the range 10-160 mg/kg p.o.
Text: Another test, in which the effect of a drug corresponds to the effects obtained in the tests mentioned above, and which can therefore also be used, is the well-established carrageenan edema test in rats (5). Comparative evaluation of compounds of the present invention in the three tests mentioned has shown that compounds which increase the extent of the delayed hypersensitivity reaction in the pertussis vaccine pleurisy test and in the adjuvant arthritis test also increase the extent of carrageenan-induced edema in the carrageenan edema test, thus providing a further tool for the determination of enhancement of cell-mediated immunity.
This example illustrates the effect of the compounds of the general formula I in the carrageenan edema test in rats.
A modification of a method described in (5) was used. Female Sprague-Dawleyrats weighing 110-120 g was used. At least 10 animals were used in each experimental group. Foot edema was induced by injecting carrageenan in 0.9% NaCl into the plantar surface of the right hind paw of the rats.
The substances suspended in aqueous methocel solution 10 ml/kg were administered intragastrically 30 minutes before the injection of carrageenan. The control groups were given methocel solution 10 ml/kg.
Three hours after carrageenan injection the animals were killed. The hind feet were cut off and weighed. The difference in weight of the injected right paw and the uninjected left paw was called edema weight.
The effect of the substances was assessed by the edema weight expressed in percent after comparison with the control groups.

[3] = test system: delayed hypersensitivity reaction (adjuvant arthritis, Mycobacterium butyricum); assay: adjuvant arthritis test in rats; assay type: in vivo, rat (male Lister hooded); conditions: for change in vivo at 40 mg/kg: Rattus norvegicus, po, 336 h, read-out: Increase of the volume of the left foot
Text: (§1) The adjuvant arthritis test in rats produces a measureable extent of a delayed hypersensitivity reaction and can be used for a determination of variations in the extent of the delayed hypersensitivity reaction upon drug administration to the host. An increase in the extent of the delayed hypersensitivity reaction upon drug administration consequently indicates enhanced cell-mediated immunity in the host.
This example illustrates the effect of the compounds of the general formula I in the adjuvant arthritis test in rats.
as §1, with “produces” for “produces a measureable extent of”, “variations” for “variations in the extent”
A modification of a method described in (12) was used. Male Lister hooded rats weighing 250-275 g were used. At least 9 animals were used in each experimental group.
A single intradermal injection of 0.5 mg/0.1 ml heat killed Mycobacterium butyricum suspended in sterile liquid paraffinum was given into the right hind foot of all rats. After this injection, day 0, the volume of the left hind paw, measured by water displacement, was followed to the end of the experiment.
The substances suspended in aqueous methocel solution 10 ml/kg were given intragastrically. The control group was given methocel solution 10 ml/kg. The different groups of animals were thus treated once daily from day -4 to day 14. The effect of the substances was assessed by the left foot volume expressed in percent after comparison with the control groups.

[4] = 10 mg/kg p.o., once daily day 10 to day 13, vs control, preliminary

SMILES | significant potentiating effect in the adjuvant arthritis test ([3]; 40 mg/kg p.o.) | significant enhancing effect in the pertussis vaccine pleurisy test ([1]; 10 mg/kg p.o.) | significant potentiation of the carrageenan edema [2] | further results
O=C(Nc1ccccc1)c1c(O)c2cccc3c2n(c1=O)CCC3 [2:3, N-phenyl-1,2-dihydro-4-hydroxy-2-oxo-1,8-trimethylene-quinoline-3-carboxamide] |  |  |  | change in vivo at 10 mg/kg [1, 4]: 66%; change in vivo at 80 mg/kg [2]: 61%; change in vivo at 40 mg/kg ([3]; 40 mg/kg p.o., once daily day -4 to day 14, vs control, preliminary): 39%
CC(C)(S)[C@@H](N)C(=O)O [Penicillamine, penicillamine, reference compound] |  |  |  | change in vivo at 10 mg/kg [1]: 17%; change in vivo at 40 mg/kg [3]: 0%
CN(C(=O)c1c(O)c2ccccc2n(C)c1=O)c1ccc(O)cc1 [21:11, N-(4-hydroxyphenyl)-N-methyl-1,2-dihydro-4-hydroxy-1-methyl-2-oxo-quinoline-3-carboxamide] | significant potentiating effect |  |  | change in vivo at 10 mg/kg [1, 4]: 34%
CN(C(=O)c1c(O)c2ccccc2n(C)c1=O)c1cnccn1 [21:23, N-methyl-N-pyrazinyl-1,2-dihydro-4-hydroxy-1-methyl-2-oxo-quinoline-3-carboxamide] | significant potentiating effect | significant enhancing effect |  | 
COc1cccc(N(C)C(=O)c2c(O)c3cc(C)ccc3n(C(C)C)c2=O)c1 [21:17, N-(3-methoxyphenyl)-N-methyl-1,2-dihydro-4-hydroxy-1-isopropyl-6-methyl-2-oxo-quinoline-3-carboxamide] | significant potentiating effect | significant enhancing effect |  | 
CN(C(=O)c1c(O)c2cccc3c2n(c1=O)CC3)c1nccs1 [21:31, N-methyl-N-2-thiazolyl-1,2-dihydro-1,8-ethylene-4-hydroxy-2-oxo-quinoline-3-carboxamide] | significant potentiating effect | significant enhancing effect |  | 
CN(C)c1ccc(NC(=O)c2c(O)c3cccc4c3n(c2=O)CC4)cc1 [12:8, N-(4-dimethylaminophenyl)-1,2-dihydro-1,8-ethylene-4-hydroxy-2-oxo-quinoline-3-carboxamide] |  |  |  | change in vivo at 10 mg/kg [1, 4]: 29%; change in vivo at 80 mg/kg [2]: 51%
CN(C)c1ccc(N(C)C(=O)c2c(O)c3cccc4c3n(c2=O)CC4)cc1 [21:30, N-(4-dimethylaminophenyl)-N-methyl-1,2-dihydro-1,8-ethylene-4-hydroxy-2-oxo-quinoline-3-carboxamide] | significant potentiating effect | significant enhancing effect |  | 
CCN(C(=O)c1c(O)c2cccc3c2n(c1=O)CCC3)c1ccccn1 [21:33, N-ethyl-N-2-pyridyl-1,2-dihydro-4-hydroxy-2-oxo-1,8-trimethylene-quinoline-3-carboxamide] | significant potentiating effect | significant enhancing effect |  | 
Cc1cc(N(C)C(=O)c2c(O)c3cc(Cl)ccc3n(C)c2=O)sn1 [21:24, N-methyl-N-(3-methyl-5-isothiazolyl)-6-chloro-1,2-dihydro-4-hydroxy-1-methyl-2-oxo-quinoline-3-carboxamide] | significant potentiating effect | significant enhancing effect |  | 
O=C(Nc1ccc(N2CCCC2)cc1)c1c(O)c2cccc3c2n(c1=O)CC3 [12:7, N-(4-pyrrolidinophenyl)-1,2-dihydro-1,8-ethylene-4-hydroxy-2-oxo-quinoline-3-carboxamide, hydrochloride] |  | significant enhancing effect | potentiate significantly | 
COc1ccc(N(C)C(=O)c2c(O)c3cccc4c3n(c2=O)CC4)cc1 [21:28, N-(4-methoxyphenyl)-N-methyl-1,2-dihydro-1,8-ethylene-4-hydroxy-2-oxo-quinoline-3-carboxamide] | significant potentiating effect | significant enhancing effect |  | 
CN(C(=O)c1c(O)c2ccccc2n(C)c1=O)c1ccc(N2CCCCC2)cc1 [20:9, N-(4-piperidinophenyl)-N-methyl-1,2-dihydro-4-hydroxy-1-methyl-2-oxo-quinoline-3-carboxamide] |  | significant enhancing effect | potentiate significantly | 
CCn1c(=O)c(C(=O)N(C)c2ccccc2)c(O)c2ccccc21 [20:10, N-methyl-N-phenyl-1,2-dihydro-1-ethyl-4-hydroxy-2-oxo-quinoline-3-carboxamide] |  | significant enhancing effect | potentiate significantly | 
CN(C(=O)c1c(O)c2ccccc2n(C)c1=O)c1ccc2c(c1)OCO2 [20:29, N-methyl-N-(3,4-methylenedioxyphenyl)-1,2-dihydro-4-hydroxy-1-methyl-2-oxo-quinoline-3-carboxamide] |  | significant enhancing effect | potentiate significantly | 
C=CCN(C(=O)c1c(O)c2ccccc2n(C)c1=O)c1ccccc1 [21:12, N-allyl-N-phenyl-1,2-dihydro-4-hydroxy-1-methyl-2-oxo-quinoline-3-carboxamide] |  | significant enhancing effect | potentiate significantly | 
CCN(C(=O)c1c(O)c2cc(N(C)C)ccc2n(C)c1=O)c1ccccn1 [21:26, N-ethyl-N-2-pyridyl-1,2-dihydro-6-dimethylamino-4-hydroxy-1-methyl-2-oxo-quinoline-3-carboxamide] | significant potentiating effect | significant enhancing effect |  | 
CN(C(=O)c1c(O)c2ccccc2n(-c2ccc(F)cc2)c1=O)c1ccc(N2CCCC2)cc1 [21:19, N-methyl-N-(4-pyrrolidinophenyl)-1-(4-fluorophenyl)-1,2-dihydro-4-hydroxy-2-oxo-quinoline-3-carboxamide] | significant potentiating effect |  |  | 
CN(C)c1ccc(N(C)C(=O)c2c(O)c3ccccc3n(C)c2=O)cc1 [21:10, N-(4-dimethylaminophenyl)-N-methyl-1,2-dihydro-4-hydroxy-1-methyl-2-oxo-quinoline-3-carboxamide] |  | significant enhancing effect | potentiate significantly | 
CN(C(=O)c1c(O)c2cccc3c2n(c1=O)CC3)c1ccccc1 [21:3, N-methyl-N-phenyl-1,2-dihydro-1,8-ethylene-4-hydroxy-2-oxo-quinoline-3-carboxamide] |  | significant enhancing effect | potentiate significantly | 

Reference: patent publication US4738971A, “N-aryl-1,2-dihydro-4-substituted-1-alkyl-2-oxo-quinoline-3-carboxamides” (priority 1981, dated 1988)
